Values joined by “and” are separate entries in the source; they are usually repeats but may differ in a detail not shown here. Equal entries are not always repeated. Where two headings read alike, the source gives them in different places.

For data set [1], the target named is T1, Recombinant human Src enzyme (Homo sapiens, UniProt P12931).
T1 construct: purchased PanVera P3044
Put plainly: Src kinase assay (LANCE FRET). The data set is classed as biochemical. The note with it: Table 3; 100 μM ATP, biotinylated Cdk1 peptide substrate. How it is done:
Recombinant human Src enzyme was obtained from PanVera (P3044). […] Homogeneous fluorescence resonance energy transfer kinase assays were performed using the europium/APC detection format (LANCE, Perkin Elmer). Src enzyme (10 ng) was mixed with biotinylated peptide (final concentration 2 μM), 50 mM Hepes (pH 7.5), 10 mM MgCl2, 20 μg/ml BSA, 0.001% Brij-35 (sigma), 100 μM ATP, 1% DMSO. The kinase reaction was incubated for 70 min at 37° C. The reaction was stopped with EDTA at a final concentration of 30 mM EDTA/25 mM Hepes (pH 7.5)/10 μg/ml BSA. The mixture was combined with Eu-labeled anti-phosphotyrosine antibody PT66 (Perkin Elmer, AD0068) and Streptavidin Surelight-APC (Perkin Elmer, CR130-100) in 50 mM Hepes (pH 7.5)/20 μg/ml BSA, and incubated for 30 min according to manufacturer's specifications. […] Multiple entries for a given compound indicate that it was tested multiple times.
A general note: TR-FRET usually uses a lanthanide donor and a delayed reading to cut background.

In data set [2] the test system is Rat2 fibroblasts stably transformed with v-Src/Hu c-Src fusion gene. Put plainly: Anchorage independent Src-transformed fibroblast proliferation assay. The data set is classed as cell-based, rat. The procedure: Anchorage Independent Src-Transformed Fibroblast Proliferation Assay Rat2 fibroblasts stably transformed with a plasmid containing a CMV promotor controlled v-Src/Hu c-Src fusion gene in which the catalytic domain of human c-Src was inserted in place of the v-Src catalytic domain in the v-Src gene are used for the measurement of src dependent suspension growth. […] Multiple entries for a given compound indicate that it was tested multiple times.

In data set [3] the target is T2, Rat2 fibroblasts stably transformed with v-Src/Hu Lck fusion gene (Homo sapiens, UniProt P06239, cells depend on it, form not given).
T2 construct: Candidates are e.g. Schmidt-Ruppin A (P00524) or Prague C (P00526); The human Lck catalytic domain stands in place of the v-Src catalytic domain
T2 sequence (P06239 whole entry, change not shown, the tested form may be a part): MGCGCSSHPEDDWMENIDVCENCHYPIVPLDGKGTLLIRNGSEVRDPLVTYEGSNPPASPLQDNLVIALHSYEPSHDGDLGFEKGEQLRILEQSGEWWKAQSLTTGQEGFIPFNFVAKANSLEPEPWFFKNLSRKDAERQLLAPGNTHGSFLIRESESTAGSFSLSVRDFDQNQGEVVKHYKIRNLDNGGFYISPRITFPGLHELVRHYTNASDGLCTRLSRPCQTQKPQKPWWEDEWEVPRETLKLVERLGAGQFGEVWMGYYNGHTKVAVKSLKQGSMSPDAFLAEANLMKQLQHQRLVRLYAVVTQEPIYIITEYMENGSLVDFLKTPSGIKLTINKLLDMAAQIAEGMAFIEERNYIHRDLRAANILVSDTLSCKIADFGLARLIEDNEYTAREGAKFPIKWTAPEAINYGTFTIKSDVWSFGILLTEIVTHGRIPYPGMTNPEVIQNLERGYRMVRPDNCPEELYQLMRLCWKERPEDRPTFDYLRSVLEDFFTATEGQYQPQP
Put plainly: Anchorage independent Lck-transformed fibroblast proliferation assay. The data set is classed as cell-based, rat. The procedure:
Anchorage Independent Lck-Transformed Fibroblast Proliferation Assay
Rat2 fibroblasts stably transformed with a plasmid containing a CMV promotor controlled v-Src/Hu Lck fusion gene in which the catalytic domain of human Lck was inserted in place of the v-Src catalytic domain in the v-Src gene are used for the measurement of src dependent suspension growth. Ultra-low cluster plates (Costar # 3474) are seeded with 10,000 cells per well on Day 1. Compound is added in serial two-fold dilutions from 10 micromolar to 0.009 micromolar on Day 2 and MTS reagent (Promega) is added on Day 5 (100 microliters of MTS/medium mix+100 microliters of medium already on the cells and the absorbance is measured at 490 nm. The results are analyzed as follows to yield an IC50 for proliferation (micromolar units) as follow: % inhibition=(Abs490 nm sample−blank)/(Abs490 nm no cmpd control−blank)×100%. The results obtained for representative compounds of this invention are listed in Table 2. Multiple entries for a given compound indicate that it was tested multiple times.

Where [4] appears, read: Rattus norvegicus, Rat2, Table 3, read-out: Src Cells IC50 μM or % inhib at 10 μM (IC50 values).
The mark [5] stands for this setting: Table 3, read-out: Src Cells IC50 μM or % inhib at 10 μM (IC50 values).
Where [6] appears, read: Table 3, read-out: Lck Cells IC50.
Where [7] appears, read: Rattus norvegicus, Rat2, read-out: Src Cells IC50 μM or % inhib at 10 μM (IC50 values), Table 3.

T1 sequence (P12931 whole entry): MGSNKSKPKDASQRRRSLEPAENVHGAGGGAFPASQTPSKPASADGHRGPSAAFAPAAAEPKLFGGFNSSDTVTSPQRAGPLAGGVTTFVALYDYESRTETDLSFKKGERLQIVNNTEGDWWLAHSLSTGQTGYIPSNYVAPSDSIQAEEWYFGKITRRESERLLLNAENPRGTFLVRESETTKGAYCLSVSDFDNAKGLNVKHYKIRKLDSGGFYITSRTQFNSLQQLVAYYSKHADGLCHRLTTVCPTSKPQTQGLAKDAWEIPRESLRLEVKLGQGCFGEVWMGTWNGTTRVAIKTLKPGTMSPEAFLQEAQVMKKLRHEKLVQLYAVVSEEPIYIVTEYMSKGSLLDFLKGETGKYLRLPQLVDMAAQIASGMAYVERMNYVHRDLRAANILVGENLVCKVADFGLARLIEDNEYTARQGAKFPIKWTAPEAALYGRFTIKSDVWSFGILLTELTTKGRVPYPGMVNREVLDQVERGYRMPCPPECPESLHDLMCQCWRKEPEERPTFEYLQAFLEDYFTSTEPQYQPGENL

In general, IC50 refers to the midpoint of a concentration-inhibition curve. For orientation: melting point means the temperature, or range, at which the solid turns liquid. `COc1cc(Nc2c(C#N)cnc3cc(-c4ccc(CN5CCOCC5)cn4)sc23)c(Cl)cc1Cl` [Example 108, 7-[(2,4-dichloro-5-methoxyphenyl)amino]-2-[5-(morpholin-4-ylmethyl)pyridin-2-I]thieno[3,2-b]pyridine-6-carbonitrile] gave a melting point of 227 to 229 °C. Besides, the IC50 in data set [1] was 0.013 µM and 0.012 µM. Further, the IC50 in data set [2] (setting [4]) is 0.474 µM. Also, in data set [2] (setting [5]), the IC50 is 0.319 µM. Besides, in data set [3] (setting [6]), the GI50 is 0.201 µM and 0.24 µM.

Take `COc1cc(Nc2c(C#N)cnc3cc(-c4ccc(CNCCCO)cc4)sc23)c(Cl)cc1Cl` [Example 107, 7-[(2,4-dichloro-5-methoxyphenyl)amino]-2-(4-{[(3-hydroxypropyl)amino]methyl}phenyl)thieno[3,2-b]pyridine-6-carbonitrile]: the melting point was 141 to 143 °C. Also, the IC50 in data set [1] was 0.009 µM and 0.011 µM. Also, the IC50 in data set [2] (setting [4]) worked out at 0.531 µM. Besides, the IC50 in data set [2] (setting [5]) came out at 0.543 µM. Further, the GI50 in data set [3] (setting [6]) was 0.063 µM and 0.065 µM.

On to `COc1cc(Nc2c(C#N)cnc3cc(-c4ccc(N(C)C)cc4)sc23)c(Cl)cc1Cl` [Example 73, 7-[(2,4-dichloro-5-methoxyphenyl)amino]-2-[4-(dimethylamino)phenyl]thieno[3,2-b]pyridine-6-carbonitrile], for which the melting point lay within 255 to 258 °C. Further, the IC50 in data set [1] is 0.12 µM and 0.094 µM. The IC50 in data set [2] (setting [7]) is 1.4 µM. In addition, the 50% inhibitory concentration (IC50) in data set [2] (read-out: Src Cells IC50 μM or % inhib at 10 μM (IC50 values), Table 3) worked out at 1.1 µM. Further, the GI50 in data set [3] (setting [6]) was 1.2 µM and 1.1 µM.

Molecule `COc1cc(Nc2c(C#N)cnc3cc(-c4ccc(CN5CCN(S(C)(=O)=O)CC5)cc4)sc23)c(Cl)cc1Cl` [Example 122, 7-[(2,4-dichloro-5-methoxyphenyl)amino]-2-(4-{[4-(methylsulfonyl)piperazin-1-yl]methyl}phenyl)thieno[3,2-b]pyridine-6-carbonitrile] had a melting point of 211 to 213 °C. Moreover, the IC50 in data set [1] is 0.018 µM and 0.023 µM. Also, in data set [3] (setting [6]), the GI50 was 0.897 µM and 1.08 µM and 1.56 µM.

`COCCNCc1ccc(-c2cc3ncc(C#N)c(Nc4cc(OC)c(Cl)cc4Cl)c3s2)cc1` [Example 92, 7-[(2,4-dichloro-5-methoxyphenyl)amino]-2-(4-{[(2-methoxyethyl)amino]methyl}phenyl)thieno[3,2-b]pyridine-6-carbonitrile] yielded a melting point of 162 to 164 °C. In data set [1], the IC50 was 0.0088 µM and 0.011 µM. Further, in data set [2] (setting [4]), the IC50 came out at 0.829 µM. In addition, in data set [2] (setting [5]), the IC50 amounted to 0.486 µM. Further, the GI50 in data set [3] (setting [6]) is 0.145 µM and 0.103 µM.

`COc1cc(Nc2c(C#N)cnc3cc(-c4ccc(CN5CCNCC5)cc4)sc23)c(Cl)cc1Cl` [Example 95, 7-[(2,4-dichloro-5-methoxyphenyl)amino]-2-[4-(piperazin-1-ylmethyl)phenyl]thieno[3,2-b]pyridine-6-carbonitrile]: the melting point was in the range of 218 to 220 °C. Also, in data set [1], the IC50 is 0.0084 µM and 0.0083 µM and 0.0069 µM and 0.0053 µM. Besides, the GI50 in data set [3] (setting [6]) was 0.193 µM and 0.133 µM and 0.168 µM.

The molecule `COc1cc(Nc2c(C#N)cnc3c(-c4ccc(CN5CCN(C)CC5)cc4)csc23)c(Cl)cc1Cl` [Example 142, 7-[(2,4-dichloro-5-methoxyphenyl)amino]-3-{4-[(4-methylpiperazin-1-yl)methyl]phenyl}thieno[3,2-b]pyridine-6-carbonitrile] returned a melting point of 197 to 198 °C. Further, in data set [1], the concentration for half-maximal inhibition (IC50) is over 10 µM. For the same molecule, the IC50 in data set [2] (setting [4]) amounted to 3.25 µM. The IC50 in data set [2] (setting [5]) was found to be 1.99 µM. The GI50 in data set [3] (setting [6]) was 3.54 µM and 4.35 µM.

For `COc1cc(Nc2c(C#N)cnc3cc(-c4ccsc4CN4CCN(C)CC4)sc23)c(Cl)cc1Cl` [Example 84, 7-[(2,4-dichloro-5-methoxyphenyl)amino]-2-{2-[(4-methylpiperazin-1-yl)methyl]thien-3-yl}thieno[3,2-b]pyridine-6-carbonitrile], the melting point was in the range of 218 to 219 °C. In addition, the IC50 in data set [1] was 0.32 µM and 0.58 µM and 0.347 µM. Moreover, the IC50 in data set [2] (setting [7]) turned out to be 3.3 µM. The GI50 in data set [3] (setting [6]) stood at 3.4 µM.

Regarding `COc1cc(Nc2c(C#N)cnc3cc(-c4ccc(CN(C)CCN(C)C)cc4)sc23)c(Cl)cc1Cl` [Example 72, 7-[(2,4-dichloro-5-methoxyphenyl)amino]-2-(4-{[[2-(dimethylamino)ethyl](methyl)amino]methyl}phenyl)thieno[3,2-b]pyridine-6-carbonitrile], the IC50 in data set [1] was 0.0094 µM and 0.015 µM; in data set [2] (setting [4]) it was 1.3 µM; in data set [2] (setting [5]), 0.7 µM. Also, the GI50 in data set [3] (setting [6]) was 0.12 µM and 0.077 µM.

`CCN(CC)Cc1ccc(-c2cc3ncc(C#N)c(Nc4cc(OC)c(Cl)cc4Cl)c3s2)cc1` [Example 106, 7-[(2,4-dichloro-5-methoxyphenyl)amino]-2-{4-[(diethylamino)methyl]phenyl}thieno[3,2-b]pyridine-6-carbonitrile] displayed a melting point of 160 to 162 °C. In addition, the IC50 in data set [1] is 0.01 µM and 0.0066 µM. The GI50 in data set [3] (setting [6]) is 0.103 µM and 0.095 µM and 0.058 µM and 0.071 µM.

Consider `COc1cc(Nc2c(C#N)cnc3cc(-c4ccc(CN5CCS(=O)(=O)CC5)cc4)sc23)c(Cl)cc1Cl` [Example 111, 7-[(2,4-dichloro-5-methoxyphenyl)amino]-2-{4-[(1,1-dioxidothiomorpholin-4-yl)methyl]phenyl}thieno[3,2-b]pyridine-6-carbonitrile], for which the IC50 in data set [1] came to 0.016 µM; in data set [2] (setting [4]), 0.572 µM; in data set [2] (setting [5]), 0.411 µM. Besides, the GI50 in data set [3] (setting [6]) is 0.283 µM and 0.428 µM.

`COc1cc(Nc2c(C#N)cnc3cc(-c4cccc(CN(C)C)n4)sc23)c(Cl)cc1Cl` [Example 128, 7-[(2,4-dichloro-5-methoxyphenyl)amino]-2-{6-[(dimethylamino)methyl]pyridin-2-yl}thieno[3,2-b]pyridine-6-carbonitrile] showed a melting point of 221 to 223 °C. The IC50 in data set [1] is 0.066 µM and 0.069 µM. Besides, the GI50 in data set [3] (setting [6]) was 0.539 µM and 0.557 µM.

The molecule `COc1cc(Nc2c(C#N)cnc3cc(-c4csc(CN5CCOCC5)c4)sc23)c(Cl)cc1Cl` [Example 39, 7-[(2,4-Dichloro-5-methoxyphenyl)amino]-2-[5-(morpholin-4-ylmethyl)thien-3-yl]thieno[3,2-b]pyridine-6-carbonitrile] came in with a melting point of 209 to 212 °C. Besides, the IC50 in data set [2] (Rattus norvegicus, Rat2, 120 h, Table 1, suspension growth, MTS readout Day 5, read-out: Src cells IC50) was 0.85 µM. Further, the GI50 in data set [3] (Table 2, suspension growth, MTS readout Day 5, read-out: Lck cells IC50) came out at 0.68 µM.

`COc1cc(Nc2c(C#N)cnc3cc(-c4ccc(C5OCCO5)o4)sc23)c(Cl)cc1Cl` [Example 68, 7-[(2,4-dichloro-5-methoxyphenyl)amino]-2-[5-(1,3-dioxolan-2-yl)-2-furyl]thieno[3,2-b]pyridine-6-carbonitrile] had a melting point of 187 to 189 °C. Moreover, the IC50 in data set [2] (setting [4]) was 6.1 µM. Further, the IC50 in data set [2] (setting [5]) was 6 µM. For the same molecule, in data set [3] (setting [6]), the GI50 is 2.8 µM and 3 µM.

On to `COc1cc(Nc2c(C#N)cnc3cc(-c4ccc(C5OCCO5)s4)sc23)c(Cl)cc1Cl` [Example 77, 7-[(2,4-dichloro-5-methoxyphenyl)amino]-2-[5-(1,3-dioxolan-2-yl)thien-2-yl]thieno[3,2-b]pyridine-6-carbonitrile], for which the melting point is 213 to 217 °C. Also, the IC50 in data set [2] (setting [4]) amounted to 2.4 µM. Also, the IC50 in data set [2] (setting [5]) was 1.5 µM. In addition, the GI50 in data set [3] (setting [6]) was 1.9 µM and 1.7 µM.

In turn, `COc1cc(Nc2c(C#N)cnc3cc(-c4ccc(CNCc5ccncc5)cc4)sc23)c(Cl)cc1Cl` [Example 89, 7-[(2,4-dichloro-5-methoxyphenyl)amino]-2-(4-{[(pyridin-4-ylmethyl)amino]methyl}phenyl)thieno[3,2-b]pyridine-6-carbonitrile] returned a melting point of 128 to 130 °C. In addition, the IC50 in data set [2] (setting [4]) was found to be 1.5 µM. Also, the IC50 in data set [2] (setting [5]) stood at 1.21 µM. The GI50 in data set [3] (setting [6]) is 1 µM and 1.06 µM.

Consider `COc1cc(Nc2c(C#N)cnc3cc(/C=C/c4ccccc4)sc23)c(Cl)cc1Cl` [Example 64, 7-[(2,4-Dichloro-5-methoxyphenyl)amino]-2-[(E)-2-phenylvinyl]thieno[3,2-b]pyridine-6-carbonitrile], for which the melting point is 236 to 238 °C. Also, the IC50 in data set [2] (setting [4]) was 6.4 µM. Further, the IC50 in data set [2] (setting [5]) amounted to 5.6 µM. For the same molecule, the GI50 in data set [3] (setting [6]) was 7.4 µM and 7.9 µM.

Values taken from US7276519B2, “Thieno[3,2-b]pyridine-6-carbonitriles and thieno[2,3-b]pyridine-5-carbonitriles as protein kinase inhibitors” (Wyeth, priority 2002, dated 2007).
